Target: T1, SHP2 (Homo sapiens, UniProt Q06124)
T1 sequence (Q06124 1-593): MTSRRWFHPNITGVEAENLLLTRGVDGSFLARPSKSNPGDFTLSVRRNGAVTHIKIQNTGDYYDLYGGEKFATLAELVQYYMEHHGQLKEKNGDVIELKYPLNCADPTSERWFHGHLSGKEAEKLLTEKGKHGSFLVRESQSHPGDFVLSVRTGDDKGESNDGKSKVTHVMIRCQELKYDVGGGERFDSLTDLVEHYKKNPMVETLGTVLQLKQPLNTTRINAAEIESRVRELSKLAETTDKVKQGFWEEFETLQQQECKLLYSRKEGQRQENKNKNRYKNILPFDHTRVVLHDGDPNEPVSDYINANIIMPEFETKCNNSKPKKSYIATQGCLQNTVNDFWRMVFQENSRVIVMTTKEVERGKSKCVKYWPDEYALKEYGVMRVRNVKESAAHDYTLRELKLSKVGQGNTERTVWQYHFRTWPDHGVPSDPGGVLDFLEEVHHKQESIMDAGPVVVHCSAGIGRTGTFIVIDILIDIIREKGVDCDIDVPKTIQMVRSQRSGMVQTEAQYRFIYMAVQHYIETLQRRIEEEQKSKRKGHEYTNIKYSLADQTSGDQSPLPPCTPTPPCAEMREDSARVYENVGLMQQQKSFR
Assay: SHP2 allosteric inhibitor enzyme activity assay (DiFMUP fluorescence)
Type: biochemical
Summary of the method: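 SHP2 activated by 0.5 μM IRS1_pY1172(dPEG8)pY1222 peptide, 0.2 ng enzyme per well, 1 h at room temperature with compound (1 μM top, 3-fold series), then DiFMUP substrate 1 h. Buffer: 60 mM HEPES, 75 mM NaCl, 75 mM KCl, 0.05% BRIJ-35, 1 mM EDTA, 5 mM DTT. Fluorescence ex 340/em 450 nm; IC50 by variable-slope fit.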

SMILES | IC50 (class symbols) [nM] | IC50 (numeric values) [nM]
Cc1nc2c(s1)C(c1n[nH]c3nc(N4CCC5(CC4)Cc4ccccc4C5N)[nH]c(=O)c13)=CC(C)(C)C2 (centres unmarked) [Example 129] | 20 to 60 | 
CC1(C)C=C(c2n[nH]c3nc(N4CCC5(CC4)Cc4ccccc4C5N)[nH]c(=O)c23)c2sc(N)nc2C1 (centres unmarked) [Example 130, 6-(1-amino-1,3-dihydrospiro[indene-2,4′-piperidin]-1′-yl)-3-(2-amino-5,5-dimethyl-4,5-dihydrobenzo[d]thiazol-7-yl)-1,5-dihydro-4H-pyrazolo[3,4-d]pyrimidin-4-one] | 20 to 60 | 
Cn1ncc2c1CCC=C2c1n[nH]c2nc(N3CCC4(CC3)Cc3ccccc3[C@H]4N)[nH]c(=O)c12 [Example 131, (S)-6-(1-amino-1,3-dihydrospiro[indene-2,4′-piperidin]-1′-yl)-3-(1-methyl-6,7-dihydro-1H-indazol-4-yl)-1,5-dihydro-4H-pyrazolo[3,4-d]pyrimidin-4-one] | ≤ 20 | 
N[C@@H]1c2ccccc2CC12CCN(c1nc3[nH]nc(C4=CCC5(CC5)c5ccccc54)c3c(=O)[nH]1)CC2 [Example 132, (S)-6-(1-amino-1,3-dihydrospiro[indene-2,4′-piperidin]-1′-yl)-3-(2′H-spiro[cyclopropane-1,1′-naphthalen]-4′-yl)-1,5-dihydro-4H-pyrazolo[3,4-d]pyrimidin-4-one] | ≤ 20 | 
N[C@@H]1c2ccccc2CC12CCN(c1nc3[nH]nc(C4=CCC5(CC5)c5ncccc54)c3c(=O)[nH]1)CC2 [Example 133, (S)-6-(1-amino-1,3-dihydrospiro[indene-2,4′-piperidin]-1′-yl)-3-(7′H-spiro[cyclopropane-1,8′-quinolin]-5′-yl)-1,5-dihydro-4H-pyrazolo[3,4-d]pyrimidin-4-one] | ≤ 20 | 
N[C@@H]1c2ccccc2CC12CCN(c1nc3[nH]nc(C4=CSCc5ccccc54)c3c(=O)[nH]1)CC2 [Example 134, (S)-6-(1-amino-1,3-dihydrospiro[indene-2,4′-piperidin]-1′-yl)-3-(1H-isothiochromen-4-yl)-1,5-dihydro-4H-pyrazolo[3,4-d]pyrimidin-4-one] |  | 1.7
N[C@@H]1c2ccccc2CC12CCN(c1nc3[nH]nc(C4=CCOc5ccc(Cl)cc54)c3c(=O)[nH]1)CC2 [Example 135, (S)-6-(1-amino-1,3-dihydrospiro[indene-2,4′-piperidin]-1′-yl)-3-(6-chloro-2H-chromen-4-yl)-1,5-dihydro-4H-pyrazolo[3,4-d]pyrimidin-4-one] | ≤ 20 | 
N[C@@H]1c2ccccc2CC12CCN(c1nc3[nH]nc(C4=CCCc5nc(C(F)(F)F)cc(C(F)(F)F)c54)c3c(=O)[nH]1)CC2 [Example 137, (S)-6-(1-amino-1,3-dihydrospiro[indene-2,4′-piperidin]-1′-yl)-3-(2,4-bis(trifluoromethyl)-7,8-dihydroquinolin-5-yl)-1,5-dihydro-4H-pyrazolo[3,4-d]pyrimidin-4-one] | 20 to 60 | 
N[C@@H]1c2ccccc2CC12CCN(c1nc3[nH]nc(C4=CCCc5ncc(C(F)(F)F)cc54)c3c(=O)[nH]1)CC2 [Example 138, (S)-6-(1-amino-1,3-dihydrospiro[indene-2,4′-piperidin]-1′-yl)-3-(3-(trifluoromethyl)-7,8-dihydroquinolin-5-yl)-1,5-dihydro-4H-pyrazolo[3,4-d]pyrimidin-4-one] | 20 to 60 | 
Cc1cc(C(F)(F)F)c2c(n1)CCC=C2c1n[nH]c2nc(N3CCC4(CC3)Cc3ccccc3[C@H]4N)[nH]c(=O)c12 [Example 140, (S)-6-(1-amino-1,3-dihydrospiro[indene-2,4′-piperidin]-1′-yl)-3-(2-methyl-4-(trifluoromethyl)-7,8-dihydroquinolin-5-yl)-1,5-dihydro-4H-pyrazolo[3,4-d]pyrimidin-4-one] | 20 to 60 | 
N[C@@H]1c2ccccc2CC12CCN(c1nc3[nH]nc(C4=CCCc5nc(C6CC6)cc(C(F)(F)F)c54)c3c(=O)[nH]1)CC2 [Example 141, (S)-6-(1-amino-1,3-dihydrospiro[indene-2,4′-piperidin]-1′-yl)-3-(2-cyclopropyl-4-(trifluoromethyl)-7,8-dihydroquinolin-5-yl)-1,5-dihydro-4H-pyrazolo[3,4-d]pyrimidin-4-one] | 20 to 60 | 
Cc1cc(C(F)F)c2c(n1)CCC=C2c1n[nH]c2nc(N3CCC4(CC3)Cc3ccccc3[C@H]4N)[nH]c(=O)c12 [Example 142, (S)-6-(1-amino-1,3-dihydrospiro[indene-2,4′-piperidin]-1′-yl)-3-(4-(difluoromethyl)-2-methyl-7,8-dihydroquinolin-5-yl)-1,5-dihydro-4H-pyrazolo[3,4-d]pyrimidin-4-one] | 20 to 60 | 
CC1(C)C=C(c2n[nH]c3nc(N4CCC5(CC4)Cc4ccccc4[C@H]5N)[nH]c(=O)c23)c2cccnc2C1 [Example 143, (S)-6-(1-amino-1,3-dihydrospiro[indene-2,4′-piperidin]-1′-yl)-3-(7,7-dimethyl-7,8-dihydroquinolin-5-yl)-1,5-dihydro-4H-pyrazolo[3,4-d]pyrimidin-4-one] | ≤ 20 | 
CC1(C)CC=C(c2n[nH]c3nc(N4CCC5(CC4)Cc4ccccc4[C@H]5N)[nH]c(=O)c23)c2ccc(C(F)(F)F)nc21 [Example 145, (S)-6-(1-amino-1,3-dihydrospiro[indene-2,4′-piperidin]-1′-yl)-3-(8,8-dimethyl-2-(trifluoromethyl)-7,8-dihydroquinolin-5-yl)-1,5-dihydro-4H-pyrazolo[3,4-d]pyrimidin-4-one] | ≤ 20 | 
CC1(C)C=C(c2n[nH]c3nc(N4CCC5(CC4)Cc4ccccc4[C@H]5N)[nH]c(=O)c23)c2cnc(C(F)(F)F)nc2C1 [Example 146, (S)-6-(l-amino-1,3-dihydrospiro[indene-2,4'-piperidin]-1′-yl)-3-(7,7-dimethyl-2-(trifluoromethyl)-7,8-dihydroquinazolin-5-yl)-1,5-dihydro-4H-pyrazolo[3,4-d]pyrimidin-4-one] | ≤ 20 | 
Cc1ncc2c(n1)CC(C)(C)C=C2c1n[nH]c2nc(N3CCC4(CC3)Cc3ccccc3[C@H]4N)[nH]c(=O)c12 [Example 147, (S)-6-(l-amino-1,3-dihydrospiro[indene-2,4'-piperidin]-1′-yl)-3-(2,7,7-trimethyl-7,8-dihydroquinazolin-5-yl)-1,5-dihydro-4H-pyrazolo[3,4-d]pyrimidin-4-one] | ≤ 20 | 
CC1(C)C=C(c2n[nH]c3nc(N4CCC5(CC4)Cc4ccccc4[C@H]5N)[nH]c(=O)c23)c2cnc(C3CC3)nc2C1 [Example 148, (S)-6-(l-amino-1,3-dihydrospiro[indene-2,4'-piperidin]-1′-yl)-3-(2-cyclopropyl-7,7-dimethyl-7,8-dihydroquinazolin-5-yl)-1,5-dihydro-4H-pyrazolo[3,4-d]pyrimidin-4-one] | 20 to 60 | 
CNc1ncc2c(n1)CC(C)(C)C=C2c1n[nH]c2nc(N3CCC4(CC3)Cc3ccccc3[C@H]4N)[nH]c(=O)c12 [Example 149, (S)-6-(1-amino-1,3-dihydrospiro[indene-2,4′-piperidin]-1′-yl)-3-(7,7-dimethyl-2-(methylamino)-7,8-dihydroquinazolin-5-yl)-1,5-dihydro-4H-pyrazolo[3,4-d]pyrimidin-4-one] | ≤ 20 | 
Cn1ncc2c1CC(C)(C)C=C2c1n[nH]c2nc(N3CCC4(CC3)Cc3ccccc3[C@H]4N)[nH]c(=O)c12 [Example 150, (S)-6-(1-amino-1,3-dihydrospiro[indene-2,4′-piperidin]-1′-yl)-3-(1,6,6-trimethyl-6,7-dihydro-1H-indazol-4-yl)-1,5-dihydro-4H-pyrazolo[3,4-d]pyrimidin-4-one] | ≤ 20 | 
CC1(C)C=C(c2n[nH]c3nc(N4CCC5(CC4)Cc4ccccc4[C@H]5N)[nH]c(=O)c23)c2cnn(CC(F)(F)F)c2C1 [Example 151, (S)-6-(1-amino-1,3-dihydrospiro[indene-2,4′-piperidin]-1′-yl)-3-(6,6-dimethyl-l-(2,2,2-trifluoroethyl)-6,7-dihydro-1H-indazol-4-yl)-1,5-dihydro-4H-pyrazolo[3,4-d]pyrimidin-4-one] | ≤ 20 | 
CC1(C)C=C(c2n[nH]c3nc(N4CCC5(CC4)Cc4ccccc4[C@H]5N)[nH]c(=O)c23)c2cnn(C3CC3)c2C1 [Example 152, (S)-6-(1-amino-1,3-dihydrospiro[indene-2,4′-piperidin]-1′-yl)-3-(1-cyclopropyl-6,6-dimethyl-6,7-dihydro-1H-indazol-4-yl)-1,5-dihydro-4H-pyrazolo[3,4-d]pyrimidin-4-one] | 20 to 60 | 
Cn1cc2c(n1)CC(C)(C)C=C2c1n[nH]c2nc(N3CCC4(CC3)Cc3ccccc3[C@H]4N)[nH]c(=O)c12 [Example 153, (S)-6-(1-amino-1,3-dihydrospiro[indene-2,4′-piperidin]-1′-yl)-3-(2,6,6-trimethyl-6,7-dihydro-2H-indazol-4-yl)-1,5-dihydro-4H-pyrazolo[3,4-d]pyrimidin-4-one] | ≤ 20 | 
CC1(C)C=C(c2n[nH]c3nc(N4CCC5(CC4)Cc4ccccc4[C@H]5N)[nH]c(=O)c23)c2cn(CC(F)(F)F)nc2C1 [Example 154, (S)-6-(1-amino-1,3-dihydrospiro[indene-2,4′-piperidin]-1′-yl)-3-(6,6-dimethyl-2-(2,2,2-trifluoroethyl)-6,7-dihydro-2H-indazol-4-yl)-1,5-dihydro-4H-pyrazolo[3,4-d]pyrimidin-4-one] | ≤ 20 | 
